Data from patent US20190223479A1, “SUGAR-DIPEPTIDE CONJUGATES AS FLAVOR MOLECULES” (NESTEC S.A., priority 2016, published 2019).
“Also recorded” adds a separate entry of the source.

Key:
[1] = Sensory evaluation by 12 panelists of chicken soup spiked with the compounds; conditions: versus un-spiked reference soup; for Flavor property in chicken soup (2 g/l): compound added at 2 g/l
Protocol: Sample preparation: Chicken soups were prepared by dissolving 6 g chicken base powder (detailed recipe shown in Table 1), 1 g monosodium glutamate and 1 g of sodium chloride in 500 mL hot water. The compounds were separately added at 2 g/l and 0.25 g/l.
Sensory protocol: The sensory evaluation was carried out by 12 panelists, previously screened for their sensory abilities. The panelists assessed a maximum of 6 samples per session. They had Vittel water and crackers as mouth cleansers. In all the cases, the panelists were instructed to evaluate the samples on the following attributes: overall flavor persistency, umami, meaty, grilled/popcorn, boiled chicken, sweet, bitter, salty. The samples were coded with random 3-digit numbers according to a balanced presentation design, heated at approximately 65° C. and then presented in 40 ml brown plastic containers and under red light to minimize appearance bias (the serving was approximately 25 ml per sample).

[2] = Sensory comparison by 6 panelists (nose-clips) of soup with sugar conjugate vs equimolar glucose and lysine; conditions: 2 g/L (6.49 mmol/L) in soup base versus same molar concentrations of glucose and lysine
Protocol: A first soup was prepared by adding 2 g/L (6.49 mmol/L) 1-deoxy-D-fructosyl-N-Lysine (GluAmadori-Lys2) in the soup base as described above. A second soup was prepared by adding same corresponding molar concentrations of glucose and lysine. The solutions were then evaluated by 6 panelists following the same procedure than described above with using nose-clips.

[3] = Tomato soup seasoning compositions with added compound; conditions: 0.5 g/L or 2.5 g/L, versus reference soups without the compounds
Protocol: Tomato soups can be prepared by dissolving 6 g tomato base powder as can be obtained in the commerce in 500 mL hot water. GluAmadori-Lys1 or GluAmadori-Lys2 can then be added at a concentration of 0.5 g/L or 2.5 g/L to the soups in order to improve their taste and flavor profile. […] For example, a similar tomato soup can now be prepared which has the same saltiness as the reference tomato soup but comprising less sodium chloride.

[4] = described by T. Sonntag et al.; cited from earlier work

Compound: 1-deoxy-D-fructosyl-N-Lysine [GluAmadori-Lys2]
- Flavor property in chicken soup (2 g/l) [1]: enhanced saltiness, umaminess and overall flavor persistency
- Sensory differences [2]: more salty and umami
- Taste and flavor profile of tomato soup [3]: more pronounced umami taste as well as being perceived as more salty

Compound: NCCCC[C@H](N)C(=O)O [L-lysine]
- Taste quality [4]: bitter tasting compound

Compound: NCCCC[C@H](NCC1(O)OCC(O)C1O)C(=O)O (stereo partly drawn) [RibAmadori-Lys1, ((2,3,4-trihydroxytetrahydrofuran-2-yl)methyl)lysine]
- Flavor property in chicken soup (2 g/l) [1]: baked and roasted flavors were significantly increased; also recorded: baked, roasted flavor

Compound: N[C@@H](CCCCNCC1(O)OCC(O)C1O)C(=O)O (stereo partly drawn) [RibAmadori-Lys2, N6-((2,3,4-trihydroxytetrahydrofuran-2-yl)methyl)lysine]
- Flavor property in chicken soup (2 g/l) [1]: enhanced roasted flavor

Compound: NCCCC[C@H](NCC1(O)OCC(O)C1O)C(=O)O (stereo partly drawn) [XylAmadori-Lys1, ((2,3,4-trihydroxytetrahydrofuran-2-yl)methyl)lysine]
- Flavor property in chicken soup (0.25 g/l) ([1]; compound added at 0.25 g/l): baked and roasted flavors were significantly increased
- Flavor property in chicken soup (2 g/l) [1]: baked and roasted flavors were significantly increased; also recorded: baked, roasted flavor

Compound: N[C@@H](CCCCNCC1(O)OCC(O)C1O)C(=O)O (stereo partly drawn) [XylAmadori-Lys2, N6-((2,3,4-trihydroxytetrahydrofuran-2-yl)methyl)lysine]
- Flavor property in chicken soup (2 g/l) [1]: enhanced meat flavor
